# Measured values published in ChEMBL document CHEMBL5500409, “Discovery of 5-(Piperidin-4-yl)-1,2,4-oxadiazole Derivatives as a New Class of Human Caseinolytic Protease P Agonists for the Treatment of Hepatocellular Carcinoma” (J Med Chem, 2024).
# pEC50, pIC50: −log10 of the molar value.
# Legend:
# HCCLM3 [1] = experiment: cells; details: Homo sapiens, HCCLM3, 72 h, read-out: INH
# Description: Antiproliferative activity against human HCCLM3 cells assessed as inhibition of cell proliferation at 10 uM measured after 72 hrs by MTT assay relative to control
# HCCLM3 [2] = experiment: cells; details: Homo sapiens, HCCLM3, 72 h
# Description: Antiproliferative activity against human HCCLM3 cells assessed as inhibition of cell proliferation measured after 72 hrs by MTT assay
# [3] = biological target: T1, ATP-dependent Clp protease proteolytic subunit, mitochondrial (Homo sapiens, UniProt Q16740); experiment: Agonist activity at N-terminal SUMO tagged human ClpP transfected in Escherichia coli assessed as induction of alpha-casein degradation preincubated for 10 mins followed by alpha-casein addition and measured after 2 hrs by brilliant blue staining based SDS-PAGE analysis
# T1 sequence (Q16740 whole entry): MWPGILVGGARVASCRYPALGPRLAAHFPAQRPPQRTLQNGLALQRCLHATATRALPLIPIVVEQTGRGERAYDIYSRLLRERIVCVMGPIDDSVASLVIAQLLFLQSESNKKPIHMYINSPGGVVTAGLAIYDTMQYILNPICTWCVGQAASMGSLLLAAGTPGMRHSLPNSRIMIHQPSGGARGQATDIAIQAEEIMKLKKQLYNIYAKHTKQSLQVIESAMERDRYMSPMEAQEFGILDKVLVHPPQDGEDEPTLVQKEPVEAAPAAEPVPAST
# [4] = biological target: T1, ATP-dependent Clp protease proteolytic subunit, mitochondrial; experiment: Agonist activity at human ClpP using Ac-WLA-AMC as substrate assessed as induction of substrate degradation
# HCCLM3 [5] = experiment: Antitumor activity against human HCCLM3 cells xenografted in female Balb/c nude mouse assessed as tumor growth inhibition at 20 mg/kg, ip tumor inoculated for 5 days followed by compound administration every 2 days for 4 weeks relative to control; details: HCCLM3, 672 h, read-out: TGI
Compound,inhibition at 10 µM (HCCLM3 [1]),pIC50 (HCCLM3 [2]),further results
N#Cc1cccc(C(=O)N2CCC(c3nc(Cc4ccc(F)cc4)no3)CC2)c1,22.4%,,
N#Cc1cccc(C(=O)NCCc2nc(Cc3ccc(F)cc3)no2)c1,16.1%,,
Fc1ccc(Cc2noc([C@H]3CCCN3Cc3ccc(F)cc3)n2)cc1,32.5%,,
Fc1ccc(Cc2noc(C3CCN(Cc4ccc(C(F)(F)F)cc4)CC3)n2)cc1,18.8%,,
N#Cc1cccc(CN2CCC(c3nc(Cc4cc(F)cc(F)c4)no3)CC2)c1,46.4%,,
N#Cc1cccc(CN2CCC(c3nc(Cc4ccc(F)c(Br)c4)no3)CC2)c1,83.2%,5.43,
O=C(NCCc1nc(Cc2ccc(F)cc2)no1)c1ccc(F)cc1,24.3%,,
O=C(c1ccc(F)cc1)N1CCC(c2nc(Cc3ccc(F)cc3)no2)CC1,22.1%,,
Fc1ccc(Cc2noc(C3CCN(Cc4ccccn4)CC3)n2)cc1Cl,11.1%,,
N#Cc1cccc(CN2CCC(c3nc(Cc4cccc(C(F)(F)F)c4)no3)CC2)c1,73.6%,5.14,
N#Cc1cccc(CN2CCC(c3nc(Cc4ccc(F)cc4Br)no3)CC2)c1,12.7%,,
O=C(Cc1ccc(F)cc1)N1CCC[C@@H](c2nc(-c3ccc(F)cc3)no2)C1,18.3%,,
N#Cc1cccc(CN2CCC(c3nc(Cc4ccc(Br)cc4)no3)CC2)c1,70%,5.17,
O=C(Cc1ccc(F)cc1)N1CCC[C@H](c2nc(Cc3ccc(F)cc3)no2)C1,5.3%,,
N#Cc1cccc(CN2CCC(c3nc(Cc4ccc(F)cc4Cl)no3)CC2)c1,10.4%,,
N#Cc1cccc(CN2CCC(c3nc(Cc4ccc(Br)cc4F)no3)CC2)c1,23.7%,,
O=C(NCCc1nc(Cc2ccc(F)cc2)no1)c1ccc(C(F)(F)F)cc1,15.5%,,
N#Cc1cccc(CN2CCC(c3nc(Cc4ccc(Br)c(F)c4)no3)CC2)c1,74.4%,5.19,
O=C(c1ccc(F)cc1)N1CC(c2nc(Cc3ccc(F)cc3)no2)C1,23%,,
N#Cc1cccc(CN2CCC(c3nc(Cc4cc(F)c(F)c(F)c4)no3)CC2)c1,80.9%,5.32,
N#Cc1cccc(CN2CCC(c3nc(-c4ccc(C(F)(F)F)cc4)no3)CC2)c1,19.5%,,
N#Cc1cccc(CN2CCC(c3nc(Cc4ccc(Cl)cc4F)no3)CC2)c1,55.9%,5.03,
O=C(c1ccc(F)cc1)N1CCC[C@@H](c2nc(-c3ccc(F)cc3)no2)C1,17.8%,,
Fc1ccc(CN2CCC[C@@H](c3nc(-c4ccc(F)cc4)no3)C2)cc1,11%,,
N#Cc1cccc(CN2CCC(c3nc(Cc4cc(F)ccc4F)no3)CC2)c1,12.2%,,
N#Cc1cccc(CN2CCC(c3nc(Cc4ccc(F)c(F)c4)no3)CC2)c1,88.3%,5.43,
N#Cc1cccc(CN2CCC(c3nc(Cc4ccc(F)cc4F)no3)CC2)c1,36.4%,,

Compound,inhibition at 10 µM (HCCLM3 [1]),pIC50 (HCCLM3 [2]),further results
Fc1ccc(Cc2noc([C@H]3CCCN3Cc3ccc(C(F)(F)F)cc3)n2)cc1,13.3%,,
N#Cc1cccc(CN2CCC(c3nc(Cc4ccc(F)cc4)no3)CC2)c1,77.5%,5.23,
O=C(c1ccc(F)cc1)N1CCC[C@H](c2nc(Cc3ccc(F)cc3)no2)C1,9.3%,,
O=C(c1ccc(F)cc1)N1CC[C@H](c2nc(Cc3ccc(F)cc3)no2)C1,6%,,
O=C(Cc1ccc(F)cc1)N1CC(c2nc(Cc3ccc(F)cc3)no2)C1,11.5%,,
N#Cc1cccc(CC(=O)N2CCC(c3nc(Cc4ccc(F)cc4)no3)CC2)c1,31.5%,,
N#Cc1cccc(CN2CC(c3nc(Cc4ccc(F)cc4)no3)C2)c1,5.9%,,
N#Cc1cccc(CN2CCC(c3nc(Cc4ccc(Cl)c(F)c4)no3)CC2)c1,71.1%,5.12,
N#Cc1cccc(CN2CCC(c3nc(Cc4ccccc4F)no3)CC2)c1,68.9%,5.10,
N#Cc1cccc(CN2CCC(c3nc(Cc4ccccc4)no3)CC2)c1,64.5%,5.11,
N#Cc1cccc(CN2CCC(c3nc(-c4cccc(C(F)(F)F)c4)no3)CC2)c1,30.3%,,
N#Cc1cccc(CN2CCC(c3nc(Cc4cccc(F)c4F)no3)CC2)c1,11.7%,,
O=C(c1ccc(F)cc1)N1CCC[C@H](c2nc(-c3ccc(F)cc3)no2)C1,,4.18,pEC50 [3]: 4.53; pEC50 [4]: 5.92
N#Cc1cccc(CN2CCC(c3nc(Cc4ccc(C(F)(F)F)cc4)no3)CC2)c1,56.4%,5.04,
CNC(=O)c1cc(Oc2ccc(NC(=O)Nc3ccc(Cl)c(C(F)(F)F)c3)cc2)ccn1 [SORAFENIB],,5.20,inhibition in vivo at 20 mg/kg (HCCLM3 [5]): 80.2%
Fc1ccc(Cc2noc([C@H]3CCCN(Cc4ccc(F)cc4)C3)n2)cc1,22.5%,,
O=S(=O)(NCCc1nc(Cc2ccc(F)cc2)no1)c1ccc(F)cc1,13.2%,,
Cc1ccc(Cc2noc(C3CCN(Cc4cccc(C#N)c4)CC3)n2)cc1,20.6%,,
Cc1ccccc1Cc1noc(C2CCN(Cc3cccc(C#N)c3)CC2)n1,12.3%,,
O=C(Cc1ccc(F)cc1)N1CC[C@H](c2nc(Cc3ccc(F)cc3)no2)C1,5.8%,,
Fc1ccc(Cc2noc(C3CCN(Cc4cccnc4)CC3)n2)cc1Cl,16.7%,,
N#Cc1cccc(CN2CCC(c3nc(Cc4ccc(Cl)cc4)no3)CC2)c1,61.5%,5.05,
N#Cc1cccc(CN2CCC[C@@H]2c2nc(Cc3ccc(F)cc3)no2)c1,38.8%,,
Fc1ccc(Cc2noc(C3CCN(Cc4ccc(F)cc4)CC3)n2)cc1,30%,,
N#Cc1cccc(CN2CCC(c3nc(Cc4cccc(F)c4)no3)CC2)c1,50.4%,5.01,
N#Cc1cccc(CN2CCC(c3nc(Cc4c(F)c(F)c(F)c(F)c4F)no3)CC2)c1,12.8%,,
